We go through one molecule from paper PMC9910428 (Proceedings of the National Academy of Sciences of the …, 2022).

For one assay, the system named is D. japonica. Conditions: read-out: EC50 for evoking bipolarity; cited from earlier work.
Another assay has as its system cyclophyllidean cestodes. The settings on record: cited from earlier work.
The test system of assay [1] is larval and adult diphyllobothriids. Conditions: cited from earlier work.
The next assay has as its system Sm.TRPM[T1518S]PZQ. Put plainly: FLIPR Ca2+ reporter assay, Sm.TRPM[T1518S]PZQ mutant. In kind it is cell-based, Schistosoma mansoni.
In the next assay the test system is Fh.TRPMPZQ. The settings on record: Fh.TRPMPZQ with S1 threonine residue; cited from earlier work.
Another assay deals with Ml.TRPM[E1495D]PZQ (Macrostomum lignano, UniProt A0A267GS13). The class given is cell-based.
Chain of Ml.TRPM[E1495D]PZQ (A0A267GS13 1-1954, stated change not applied): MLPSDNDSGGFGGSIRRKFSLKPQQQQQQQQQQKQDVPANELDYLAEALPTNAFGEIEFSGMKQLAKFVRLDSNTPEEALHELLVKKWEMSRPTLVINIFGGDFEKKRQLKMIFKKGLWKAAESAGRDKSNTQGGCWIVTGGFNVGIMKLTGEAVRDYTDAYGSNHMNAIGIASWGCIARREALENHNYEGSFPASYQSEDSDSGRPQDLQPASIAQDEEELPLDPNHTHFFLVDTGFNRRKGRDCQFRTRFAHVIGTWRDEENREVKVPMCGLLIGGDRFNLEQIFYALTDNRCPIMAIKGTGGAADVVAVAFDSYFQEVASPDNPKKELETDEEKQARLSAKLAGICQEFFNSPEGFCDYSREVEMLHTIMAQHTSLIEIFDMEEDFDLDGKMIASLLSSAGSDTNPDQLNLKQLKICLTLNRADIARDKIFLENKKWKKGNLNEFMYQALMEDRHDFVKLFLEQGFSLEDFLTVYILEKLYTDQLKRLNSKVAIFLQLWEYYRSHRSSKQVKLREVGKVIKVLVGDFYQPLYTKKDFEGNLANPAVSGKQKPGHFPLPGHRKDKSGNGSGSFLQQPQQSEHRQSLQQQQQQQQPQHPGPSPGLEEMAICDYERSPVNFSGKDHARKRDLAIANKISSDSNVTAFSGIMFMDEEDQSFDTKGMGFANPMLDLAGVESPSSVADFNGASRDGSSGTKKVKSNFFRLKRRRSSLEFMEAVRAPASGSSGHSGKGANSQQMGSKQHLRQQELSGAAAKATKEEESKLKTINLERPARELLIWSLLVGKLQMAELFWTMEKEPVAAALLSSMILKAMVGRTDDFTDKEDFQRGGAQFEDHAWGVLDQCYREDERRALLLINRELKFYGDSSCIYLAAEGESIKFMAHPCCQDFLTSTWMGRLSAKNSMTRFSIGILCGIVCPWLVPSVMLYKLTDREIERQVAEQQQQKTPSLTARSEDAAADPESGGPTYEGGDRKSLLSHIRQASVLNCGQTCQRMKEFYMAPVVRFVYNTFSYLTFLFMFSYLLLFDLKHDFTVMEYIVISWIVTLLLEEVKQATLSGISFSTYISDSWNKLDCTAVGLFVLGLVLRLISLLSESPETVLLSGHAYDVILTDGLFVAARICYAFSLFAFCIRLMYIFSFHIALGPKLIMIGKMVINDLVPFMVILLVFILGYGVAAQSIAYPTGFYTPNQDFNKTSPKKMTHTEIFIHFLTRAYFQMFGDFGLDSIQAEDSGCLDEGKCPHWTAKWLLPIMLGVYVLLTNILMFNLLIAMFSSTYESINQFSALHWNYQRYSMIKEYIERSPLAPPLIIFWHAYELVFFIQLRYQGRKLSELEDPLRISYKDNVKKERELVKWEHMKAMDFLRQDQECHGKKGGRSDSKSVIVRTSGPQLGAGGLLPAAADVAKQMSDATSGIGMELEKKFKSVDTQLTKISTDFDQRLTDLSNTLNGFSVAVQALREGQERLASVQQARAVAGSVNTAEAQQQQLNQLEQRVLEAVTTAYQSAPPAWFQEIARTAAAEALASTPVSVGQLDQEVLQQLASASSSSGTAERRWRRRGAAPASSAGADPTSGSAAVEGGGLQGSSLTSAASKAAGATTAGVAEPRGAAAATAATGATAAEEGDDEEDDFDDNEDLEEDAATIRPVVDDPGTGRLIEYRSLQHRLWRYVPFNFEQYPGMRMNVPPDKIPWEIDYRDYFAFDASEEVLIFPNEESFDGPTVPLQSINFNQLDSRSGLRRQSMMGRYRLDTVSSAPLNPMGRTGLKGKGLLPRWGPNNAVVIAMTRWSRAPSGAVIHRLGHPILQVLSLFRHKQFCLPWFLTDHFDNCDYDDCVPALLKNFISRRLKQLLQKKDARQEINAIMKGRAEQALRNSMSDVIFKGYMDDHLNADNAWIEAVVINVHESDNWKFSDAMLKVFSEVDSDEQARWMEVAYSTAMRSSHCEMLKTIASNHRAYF
Another assay relates to Sm.TRPM[D1677Y]PZQ. Put plainly: FLIPR Ca2+ reporter assay, Sm.TRPM[D1677Y]PZQ mutant. In kind it is cell-based, Schistosoma mansoni. A general note: Reporter assays use an easily measured gene product as a stand-in for the process of interest.
The next assay concerns Sm.TRPM[D1677E]PZQ. Put plainly: FLIPR Ca2+ reporter assay, Sm.TRPM[D1677E]PZQ mutant. In kind it is cell-based, Schistosoma mansoni.
Another assay concerns Sm.TRPM[W1667A]PZQ. Put plainly: FLIPR Ca2+ reporter assay, Sm.TRPM[W1667A]PZQ mutant. In kind it is cell-based, Schistosoma mansoni.
For a further assay, the system named is Sm.TRPM[N1388H]PZQ. The assay is described as follows: FLIPR Ca2+ reporter assay, Sm.TRPM[N1388H]PZQ mutant. The class given is cell-based, Schistosoma mansoni.

Like-named read-outs stand apart in the source and are kept apart here.

For `O=C(C1CCCCC1)N1CC(=O)N2CCc3ccccc3C2C1` (racemic) [(±)-PZQ, praziquantel], the EC50 in the assay on D. japonica is 35 ± 7 µM; on Ml.TRPM[E1495D]PZQ (Ml.TRPM[E1495D]PZQ, Ca2+), 21.1 ± 3.1 µM. Further, the “lowest concentration with deleterious effects in vitro” value in the assay with cyclophyllidean cestodes is given as 320 pM. The “concentration required to show lethality” value in assay [1] is over 320 µM. The “sensitivity compared with the wild-type channel” value in the assay with Sm.TRPM[T1518S]PZQ and in the assay on Sm.TRPM[N1388H]PZQ was “equivalent sensitivity” throughout. For the same molecule, the sensitivity of channel result in the assay on Fh.TRPMPZQ was “insensitive”. Also, the “increase of sensitivity versus wild-type Ml.TRPMPZQ” value at Ml.TRPM[E1495D]PZQ is listed as ~ 2.5 fold. The entries for the “sensitivity of mutant channel compared with wild type” value in the assay with Sm.TRPM[D1677Y]PZQ and with Sm.TRPM[W1667A]PZQ were “enhanced” and “increased sensitivity”, respectively. In addition, the “responsiveness of mutant channel” value in the assay on Sm.TRPM[D1677E]PZQ is reported as “no responsiveness”; with Sm.TRPM[D1677E]PZQ (listed as PZQ), “ablated sensitivity”.

The EC50 is the concentration at which the effect is half-maximal.
